Measurements reported in paper PMC5114273, “Activity of Scorpion Venom-Derived Antifungal Peptides against Planktonic Cells of Candida spp. and Cryptococcus neoformans and Candida albicans Biofilms” (Frontiers in Microbiology, 2016).
Ends that are not written are not given here.

Legend:
C. albicans (SC5314) = experiment: microbe, parasite or virus in culture; type: cell-based, Candida albicans; settings: RPMI-1640 pH 7.0, 2 × 10^3 cells/mL, 37°C, 24 h; complete inhibition of visible growth; at least three experiments; read-out: Minimum inhibitory concentration, C. albicans (SC5314)
Excerpt: (§1) Candida albicans strain SC 5314 (ATCC MYA-2876) was provided by Dr. Joshua Nosanchuk (New York, NY, USA). C. glabrata ATCC 90030, C. parapsilosis ATCC 22019, and C. tropicalis ATCC 750 were provided by Dr. Érika Kioshima (Universidade Estadual de Maringá, Paraná, Brazil). C. neoformans var. grubii strain H99 (serotype A, ATCC 208821) was provided by Dr. John Perfect (Durham, NC, USA). C. neoformans var. neoformans B3501 (serotype D, ATCC 34873) was obtained from ATCC (Manassas, VA, USA). All strains were stored as frozen stocks in 35% glycerol at -80°C. Before each experiment, all Candida spp. strains were grown in Sabouraud’s dextrose broth overnight at 30°C with agitation. C. neoformans strains were grown in the same conditions for 24 h. Fungal cells were collected by centrifugation, washed three times in phosphate buffered saline (PBS) (137 mM NaCl, 2.7 mM KCl, 10 mM Na2HPO4, 2 mM KH2PO4) and inoculated in Roswell Park Memorial Institute (RPMI) 1640 medium supplemented with L-glutamine and buffered to pH 7.0 with 165 mM 3-(N-morpholino)propanesulfonic acid for experiments described below.
(§2) In vitro antifungal assays were performed according to broth microdilution susceptibility test from Clinical and Laboratory Standards Institute (CLSI) M27-A3 guidelines with some modifications. Briefly, twofold serial dilutions of each peptide were prepared in 96-well polystyrene microplates to a final volume of 50 μL. Amphotericin B (Amp B; A2942, Sigma-Aldrich), a known antifungal drug, was used as a positive control. Final concentrations of each peptide and Amp B ranged from 100 to 0.78 μM and 16 to 0.03 μg/mL, respectively, except in tests with C. glabrata and C. parapsilosis, where the final peptide concentration ranged from 400 to 0.78 μM. In each plate, wells were included without peptide as a growth control. Then, 50 μL of the adjusted inoculum in RPMI-1640 medium were added to each well to a final concentration of 2 × 10^3 cells/mL for Candida spp. and 10^4 cells/mL for C. neoformans strains. The plates were incubated at 37°C for 24 and 48 h, respectively. The strains of C. neoformans were also incubated with shaking (200 rpm). […] The experiments were performed at least three times on separate dates.

C. tropicalis (ATCC 750) = experiment: microbe, parasite or virus in culture; type: cell-based, Candida tropicalis; settings: RPMI-1640 pH 7.0, 2 × 10^3 cells/mL, 37°C, 24 h; complete inhibition of visible growth; at least three experiments; read-out: Minimum inhibitory concentration, C. tropicalis (ATCC 750)
Excerpt: as §1, §2

[1] = tested on: C. parapsilosis (ATCC 22019); experiment: microbe, parasite or virus in culture; type: cell-based, Candida parapsilosis; settings: RPMI-1640 pH 7.0, 2 × 10^3 cells/mL, 37°C, 24 h; peptides 400 to 0.78 μM; at least three experiments; read-out: Minimum inhibitory concentration, C. parapsilosis (ATCC 22019)
Excerpt: as §1, §2

[2] = tested on: C. neoformans (H99 serotype A); experiment: microbe, parasite or virus in culture; type: cell-based, Cryptococcus neoformans var. grubii; settings: RPMI-1640 pH 7.0, 10^4 cells/mL, 37°C, 48 h, shaking 200 rpm; at least three experiments; read-out: Minimum inhibitory concentration, C. neoformans (H99 serotype A)
Excerpt: as §1, §2

C. glabrata (ATCC 90030) = experiment: microbe, parasite or virus in culture; type: cell-based, Candida glabrata; settings: RPMI-1640 pH 7.0, 2 × 10^3 cells/mL, 37°C, 24 h; peptides 400 to 0.78 μM; at least three experiments; read-out: Minimum inhibitory concentration, C. glabrata (ATCC 90030)
Excerpt: as §1, §2

[3] = tested on: C. neoformans (B3501 serotype D); experiment: microbe, parasite or virus in culture; type: cell-based, Cryptococcus neoformans var. neoformans; settings: RPMI-1640 pH 7.0, 10^4 cells/mL, 37°C, 48 h, shaking 200 rpm; at least three experiments; read-out: Minimum inhibitory concentration, C. neoformans (B3501 serotype D)
Excerpt: as §1, §2

human erythrocytes = experiment: Hemolytic assay; type: cell-based; settings: 1 h, 540 nm; for Hemolysis: all the tested concentrations (100 to 0.78 μM), 3% hematocrit in PBS
Excerpt: Considering the potential use of the AMPs as treatment against pathogens, even if in a more distant future, some of their properties against host cells should be addressed. To achieve this goal, we have performed hemolytic assay to evaluate if these molecules are toxic or harmless to red blood cells. Further, we have also tested the possible cytotoxicity of those peptides against other mammalian cell types by following the cell viability score after treatment. The solution of human red blood cells was treated with the peptide at levels ranging from 100 to 0.78 μM. Whole human blood was collected from healthy donors in vials with ethylenediaminetetraacetic acid (EDTA). The red blood cells were separated by centrifugation and resuspended in PBS. After the centrifugation (800 g, 5 min at 4 ± 1°C) the supernatant was removed and the red blood cells pellet was resuspended to a 3% hematocrit in sterile water (considered as 100% hemolysis) and PBS (taken as blank for spectrophotometric measurement). Fifty microliters of the 3% cell suspension in PBS were added to different final concentrations of the peptide (v/v) in a 96-well polystyrene microplate and then incubated for 1 h ([Nahar et al., 2008]; [Zhao et al., 2009]; [Qi et al., 2010]). The microplates were centrifuged and the supernatant was collected and analyzed at 540 nm using a microplate spectrophotometer. The percentage of hemolysis was calculated relative to the positive control as performed by [Nahar et al. (2008)]. The procedures were approved by the Ethics Committee on Human Research of Faculty of Medicine/University of Brasília (UnB) and conform to FDA standards (UnBDoc no. 66704/2016).

[4] = tested on: peritoneal macrophages of BALB/c mice; experiment: Cytotoxic test using peritoneal macrophages (LDH release); type: cell-based, mouse; settings: 24 h; for Viability of peritoneal macrophages: whole range of peptide concentrations
Experimental: BALB/c mice were injected with thioglycolate 72 h before peritoneal macrophages were harvested. They were diluted to a concentration of 10^6 cell/mL in RPMI-1640 supplemented with penicillin/streptomycin (100 U/mL, 100 µg/mL), 2 mM L-glutamine, 2 mM non-essential amino acids, 1 mM sodium pyruvate (all reagents from Sigma-Aldrich, St Louis, MO, USA) and 10% fetal bovine serum (FBS), and incubated in 96-well polystyrene microplates at 37°C, 5% CO2 for 24 h. The peptides were added then and cells were further incubated for 24 h as described previously ([Cruz et al., 2005]). Three independent experiments were performed. Cytotoxic activity was evaluated by the release of cytoplasmic enzyme lactate dehydrogenase due to cell lysis using the Cytotox kit (Promega). Briefly, at the end of the incubation period, supernatants were collected, the adhered cells were washed and the toxicity was determined according to the manufacturer’s protocol. The procedures were approved by the Ethics Committee on Animal Research of Institute of Biology (UnBDOC 52657/2011)/University of Brasília (UnB).

[5] = tested on: Candida spp. and C. neoformans; experiment: Broth microdilution antifungal assay, summary over the strains tested; type: cell-based, Candida spp.; Cryptococcus neoformans; settings: data not shown
Excerpt: as §1
In vitro antifungal assays were performed according to broth microdilution susceptibility test from Clinical and Laboratory Standards Institute (CLSI) M27-A3 guidelines with some modifications. Briefly, twofold serial dilutions of each peptide were prepared in 96-well polystyrene microplates to a final volume of 50 μL. Amphotericin B (Amp B; A2942, Sigma-Aldrich), a known antifungal drug, was used as a positive control. Final concentrations of each peptide and Amp B ranged from 100 to 0.78 μM and 16 to 0.03 μg/mL, respectively, except in tests with C. glabrata and C. parapsilosis, where the final peptide concentration ranged from 400 to 0.78 μM. In each plate, wells were included without peptide as a growth control. Then, 50 μL of the adjusted inoculum in RPMI-1640 medium were added to each well to a final concentration of 2 × 10^3 cells/mL for Candida spp. and 10^4 cells/mL for C. neoformans strains. The plates were incubated at 37°C for 24 and 48 h, respectively. […]

[6] = Circular dichroism, α-helix content; type: physicochemical; settings: CD, 0.2 mg/mL, 37°C, from [θ]208
Experimental: Circular dichroism (CD) assays were carried out using Jasco J-815 spectropolarimeter equipped with a Peltier-type temperature controller. Peptides (0.2 mg/mL) were analyzed in water at 37°C in absence or the presence of trifluoroethanol (TFE) (10, 30, and 50%). The mean spectrum of three consecutive experiments was corrected for the baseline buffer contribution. The observed ellipticities were converted into molar ellipticity ([θ]) based on molecular mass per residue of 115 Da ([Adler et al., 1973]). The α helix secondary structure content (fθ) was estimated considering the values of [θ]208 nm as a function of TFE concentration using the following equation ([Greenfield and Fasman, 1969]): […]

Row | Substance | MIC (C. albicans (SC5314)) | MIC (C. tropicalis (ATCC 750)) | MIC [1] | MIC [2] | MIC (C. glabrata (ATCC 90030)) | MIC [3] | further results
1 | FIGMIPGLIGGLISAIK-NH2 [ToAP3] | 25 µM | 12.5 µM | 100 µM | 100 µM | >400 µM | 25 µM | 
2 | ILSAIWSGIKSLF-NH2 [NDBP-5.7] | 25 µM | 25 µM | >400 µM | 25 µM | >400 µM | 12.5 µM | Hemolysis percent (human erythrocytes; in concentrations up to 50 μM): higher than 50%; Viability of peritoneal macrophages [4]: higher viability
3 | FFGTLFKLLSKLIPGLMKLFSKLLER-NH2 [ToAP2S1, modified analog of ToAP2, C-terminally amidated] |  |  |  |  |  |  | Hemolysis curve compared with ToAP2 (human erythrocytes; with concentrations up to 25 μM): higher hemolysis curve; Antifungal activity in the tested concentrations ([5]; C. albicans, C. glabrata and C. neoformans H99): did not show antifungal activity; α-Helix content (%), TFE 10% ([6]; TFE 10%): 22.9%; α-Helix content (%), TFE 30% ([6]; TFE 30%): 24.3%; α-Helix content (%), TFE 50% ([6]; TFE 50%): 24.7%; α-Helix content (%), water ([6]; water, mean spectrum of three experiments): 16.5%
4 | FLGMIPGLIGGLISAFK-NH2 [NDBP-4.23] | 50 µM | 6.25 µM | 100 µM | 25 µM | >400 µM | 12.5 µM | Hemolysis (human erythrocytes): lower than 50%; Concentrations showing low cytotoxicity ([4]; threshold of acceptable cytotoxicity 50% viability, three independent experiments): < 25 µM
5 | FIGMIPGLIGGLISAFK-NH2 [ToAP1] | 50 µM | 12.5 µM | 200 µM | 25 µM | >400 µM | 12.5 µM | Hemolysis (human erythrocytes): lower than 50%; Viability of peritoneal macrophages [4]: higher viability
6 | FFSLIPSLIGGLVSAIK-NH2 [ToAP4, NDBP subfamily 4 peptide from T. obscurus, amidated] |  |  |  |  |  |  | Antifungal activity in the tested concentrations ([5]; Candida spp. and C. neoformans): has not shown antifungal activity
7 | GILGKIWEGVKSLI [NDBP-5.8] | 100 µM | 25 µM | 200 µM | 100 µM | >400 µM | 50 µM | 
8 | EEDDLLGFSEEDLKAIKEHRAKNA-NH2 [ToAcP, anionic peptide from T. obscurus, LT576031] |  |  |  |  |  |  | Antifungal activity in the tested concentrations ([5]; Candida spp. and C. neoformans): did not present antifungal activity
